Results on one compound are retold here after patent US20080104722A1, “DISEASE MODEL ANIMALS OF METABOLIC SYNDROME AND A METHOD OF SCREENING PREVENTIVE AND THERAPEUTIC AGENTS FOR METABOLIC SYNDROME USING THE SAME” (REDOX BIOSCIENCE INC., priority 2006, published 2008).

In one assay the test system is TBP-2^−/− mice. In words: Glucose or oleic acid supplementation in drinking water while deprived of other food, TBP-2 knockout mice. The assay is classed as in vivo. The method, then: Blood was collected from the tail veins. Triglyceride concentrations were measured using a Wako Triglyceride Test kit according to the manufacturer's instructions (Wako Pure Chemical Industries, Ltd.). Serum insulin levels were quantified using a Mouse Insulin ELISA kit (Shibayagi Co. Ltd.). The other blood assays were performed by Falco Biosystems Ltd. The liver was removed under anesthesia at appropriate time points, and paraffin sections were prepared. Standard hematoxylin-eosin and Oil Red O staining was performed.
(§1) Glucose and fatty acids are known to be the major energy sources from foods. The anomaly observed in TBP-2^−/− mice strongly indicates the occurrence of nutritional dysmetabolism. To examine this hypothesis, these mice were housed with free access to 20% glucose or 10% oleic acid in drinking water, while deprived of other food.

A further assay deals with Wild type mice. Description: Glucose or oleic acid supplementation in drinking water while deprived of other food, wild type mice. It is filed as in vivo, mouse. To be noted: 20% glucose or 10% oleic acid in drinking water, deprived of other food (data not shown).
Text: as §1

As to `CCCCCCCC/C=C\CCCCCCCC(=O)O` [oleic acid], the “rescue (survival) of TBP-2^−/− mice” value in the assay on TBP-2^−/− mice (10% oleic acid in drinking water, deprived of other food (FIG. 9A)) is on record as “not rescued”. Further, in the assay on TBP-2^−/− mice (oleic acid supplementation (data not shown)), the “symptoms compared with fasted TBP-2^−/− mice” value is “identical symptoms”. Further, the “survival of wild type mice” value with Wild type mice is “able to survive”.
